The nature of this series: recombinant UMI read abundance after kanamycin selection (control-corrected) (log10(CPM+1)); higher = more efficient recombination; extreme values may be limits of the assay; sequences stand for … in AGTGCAGAGAAAATCGGCCAGTTTTCTCTGCCTGCAGTCCGCATGCCGTGGGACCCCTTGGGTTCTAACCTGTTGCCTAGATTTATGCAGCGGACTGCCTTTCTCCCAAAGTGATAAACCGG…AGGTTGGTTTCACT; site = the 11-nt donor. The method, boiled down: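 Values are reported as log10(CPM+1), obtained by converting sequencing counts to CPM, averaging replicates and scaling by control-derived factors. The counts came from recombinant UMIs amplified by PCR across the donor–target junction. These UMIs came from a pooled Escherichia coli screen of donor and donor-binding-loop pairs for the IS621 bridge recombinase, plated with IPTG (0.07 mM) plus kanamycin or left unselected, in two replicates each.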
Turning to “ATTTGTTCATGGACCGGTTTTCCCGGTAATCCGTATTTGGA (site ATTTGTTCTTC)”, the “recombinant UMI read abundance (log10)” value amounted to 1.4.

For “CAAAAGCCATGGACCGGTTTTCCCGGTAATCCGTATTTGTC (site CAAAAGCCTGA)”, the “recombinant UMI read abundance (log10)” value stood at 0.

Take “CAAAATACATGGACCGGTTTTCCCGGTAATCCGTATTTGGC (site CAAAATACTGC)”: the “recombinant UMI read abundance (log10)” value came to 0.

As for “CAAACACCATGGACCGGTTTTCCCGGTAATCCGTATTTGAC (site CAAACACCTGT)”, the “recombinant UMI read abundance (log10)” value amounted to 0.00914.

As to “CAAACGACATGGACCGGTTTTCCCGGTAATCCGTATTTGTT (site CAAACGACTAA)”, the “recombinant UMI read abundance (log10)” value is 1.41.

In the case of “CAAAGCTCATGGACCGGTTTTCCCGGTAATCCGTATTTGAA (site CAAAGCTCTTT)”, the “recombinant UMI read abundance (log10)” value was 3.18.

With “CAAAGCTCATGGACCGGTTTTCCCGGTAATCCGTATTTGAA (site CAACGCTCTTT)”, the “recombinant UMI read abundance (log10)” value is 0.0122.

For the sequence “CAAAGCTCATGGACCGGTTTTCCCGGTAATCCGTATTTGAA (site CAAGGCTCTTT)”, the “recombinant UMI read abundance (log10)” value was 0.579.

Regarding “CAAAGCTCATGGACCGGTTTTCCCGGTAATCCGTATTTGAA (site CAATGCTCTTT)”, the “recombinant UMI read abundance (log10)” value was 0.0194.

In the case of “CAAATACCATGGACCGGTTTTCCCGGTAATCCGTATTTGAC (site CAAATACCTGT)”, the “recombinant UMI read abundance (log10)” value is 0.

On to “CAAATCCCATGGACCGGTTTTCCCGGTAATCCGTATTTGGA (site CAAATCCCTTC)”, for which the “recombinant UMI read abundance (log10)” value came to 0.334.

As to “CAAATCTCATGGACCGGTTTTCCCGGTAATCCGTATTTGCA (site CAAATCTCTTG)”, the “recombinant UMI read abundance (log10)” value came to 1.85.

As for “CAACAACCATGGACCGGTTTTCCCGGTAATCCGTATTTGAA (site CAACAACCTTT)”, the “recombinant UMI read abundance (log10)” value was 0.102.

As for “CAACACACATGGACCGGTTTTCCCGGTAATCCGTATTTGTG (site CAACACACTCA)”, the “recombinant UMI read abundance (log10)” value was 0.834.

Turning to “CAACGCTCATGGACCGGTTTTCCCGGTAATCCGTATTTGAA (site CAAAGCTCTTT)”, the “recombinant UMI read abundance (log10)” value came out at 0.00291.

As to “CAACGCTCATGGACCGGTTTTCCCGGTAATCCGTATTTGAA (site CAACGCTCTTT)”, the “recombinant UMI read abundance (log10)” value turned out to be 2.06.

As to “CAACGCTCATGGACCGGTTTTCCCGGTAATCCGTATTTGAA (site CAAGGCTCTTT)”, the “recombinant UMI read abundance (log10)” value turned out to be 0.00387.

Regarding “CAACGCTCATGGACCGGTTTTCCCGGTAATCCGTATTTGAA (site CAATGCTCTTT)”, the “recombinant UMI read abundance (log10)” value was 0.0343.

As for “CAACTCCCATGGACCGGTTTTCCCGGTAATCCGTATTTGCT (site CAAATCCCTAG)”, the “recombinant UMI read abundance (log10)” value amounted to 0.818.

For “CAACTCCCATGGACCGGTTTTCCCGGTAATCCGTATTTGCT (site CAACTCCCTAG)”, the “recombinant UMI read abundance (log10)” value is 1.86.

Turning to “CAACTCCCATGGACCGGTTTTCCCGGTAATCCGTATTTGCT (site CAAGTCCCTAG)”, the “recombinant UMI read abundance (log10)” value came out at 0.00625.

Consider “CAACTCCCATGGACCGGTTTTCCCGGTAATCCGTATTTGCT (site CAATTCCCTAG)”, for which the “recombinant UMI read abundance (log10)” value was determined as 0.765.

Regarding “CAACTTTCATGGACCGGTTTTCCCGGTAATCCGTATTTGGT (site CAACTTTCTAC)”, the “recombinant UMI read abundance (log10)” value was 0.82.

Take “CAAGATTCATGGACCGGTTTTCCCGGTAATCCGTATTTGTT (site AAAGATTCTAA)”: the “recombinant UMI read abundance (log10)” value is 0.

For “CAAGATTCATGGACCGGTTTTCCCGGTAATCCGTATTTGTT (site CAAGATTCTAA)”, the “recombinant UMI read abundance (log10)” value came to 3.22.

On to “CAAGATTCATGGACCGGTTTTCCCGGTAATCCGTATTTGTT (site GAAGATTCTAA)”, for which the “recombinant UMI read abundance (log10)” value turned out to be 0.

As for “CAAGATTCATGGACCGGTTTTCCCGGTAATCCGTATTTGTT (site TAAGATTCTAA)”, the “recombinant UMI read abundance (log10)” value came to 0.464.

As to “CAAGCGCCATGGACCGGTTTTCCCGGTAATCCGTATTTGCG (site CAAGCGCCTCA)”, the “recombinant UMI read abundance (log10)” value was found to be 0.0343.

As to “CAAGCGCCATGGACCGGTTTTCCCGGTAATCCGTATTTGCG (site CAAGCGCCTCC)”, the “recombinant UMI read abundance (log10)” value is 0.0171.

Consider “CAAGCGCCATGGACCGGTTTTCCCGGTAATCCGTATTTGCG (site CAAGCGCCTCG)”, for which the “recombinant UMI read abundance (log10)” value came to 2.05.

Consider “CAAGCGCCATGGACCGGTTTTCCCGGTAATCCGTATTTGCG (site CAAGCGCCTCT)”, for which the “recombinant UMI read abundance (log10)” value was determined as 0.00392.

“CAAGCGCCATGGACCGGTTTTCCCGGTAATCCGTATTTGTC (site CAAGCGCCTAA)”: the “recombinant UMI read abundance (log10)” value was determined as 0.486.

For “CAAGCGCCATGGACCGGTTTTCCCGGTAATCCGTATTTGTC (site CAAGCGCCTCA)”, the “recombinant UMI read abundance (log10)” value was found to be 0.42.

On to “CAAGCGCCATGGACCGGTTTTCCCGGTAATCCGTATTTGTC (site CAAGCGCCTGA)”, for which the “recombinant UMI read abundance (log10)” value came out at 2.51.

Regarding “CAAGCGCCATGGACCGGTTTTCCCGGTAATCCGTATTTGTC (site CAAGCGCCTTA)”, the “recombinant UMI read abundance (log10)” value turned out to be 0.529.

Turning to “CAAGCGGCATGGACCGGTTTTCCCGGTAATCCGTATTTGTG (site CAAGCGACTCA)”, the “recombinant UMI read abundance (log10)” value came to 1.37.

For “CAAGCGGCATGGACCGGTTTTCCCGGTAATCCGTATTTGTG (site CAAGCGCCTCA)”, the “recombinant UMI read abundance (log10)” value is 0.00533.

With “CAAGCGGCATGGACCGGTTTTCCCGGTAATCCGTATTTGTG (site CAAGCGGCTCA)”, the “recombinant UMI read abundance (log10)” value came to 0.904.

As to “CAAGCGGCATGGACCGGTTTTCCCGGTAATCCGTATTTGTG (site CAAGCGTCTCA)”, the “recombinant UMI read abundance (log10)” value amounted to 1.66.

For “CAAGTAACATGGACCGGTTTTCCCGGTAATCCGTATTTGGG (site CAAGTAACTCC)”, the “recombinant UMI read abundance (log10)” value amounted to 1.53.

As for “CAAGTAACATGGACCGGTTTTCCCGGTAATCCGTATTTGGG (site CAAGTCACTCC)”, the “recombinant UMI read abundance (log10)” value worked out at 0.0125.

For “CAAGTAACATGGACCGGTTTTCCCGGTAATCCGTATTTGGG (site CAAGTGACTCC)”, the “recombinant UMI read abundance (log10)” value came out at 0.0247.

“CAAGTAACATGGACCGGTTTTCCCGGTAATCCGTATTTGGG (site CAAGTTACTCC)”: the “recombinant UMI read abundance (log10)” value is 0.237.

On to “CAAGTCACATGGACCGGTTTTCCCGGTAATCCGTATTTGCG (site CAAGTCACTCA)”, for which the “recombinant UMI read abundance (log10)” value is 1.27.

Turning to “CAAGTCACATGGACCGGTTTTCCCGGTAATCCGTATTTGCG (site CAAGTCACTCC)”, the “recombinant UMI read abundance (log10)” value amounted to 0.632.

“CAAGTCACATGGACCGGTTTTCCCGGTAATCCGTATTTGCG (site CAAGTCACTCG)”: the “recombinant UMI read abundance (log10)” value is 2.34.

As for “CAAGTCACATGGACCGGTTTTCCCGGTAATCCGTATTTGCG (site CAAGTCACTCT)”, the “recombinant UMI read abundance (log10)” value came to 1.63.

Consider “CAAGTCACATGGACCGGTTTTCCCGGTAATCCGTATTTGGG (site AAAGTCACTCC)”, for which the “recombinant UMI read abundance (log10)” value was 0.0232.

For the sequence “CAAGTCACATGGACCGGTTTTCCCGGTAATCCGTATTTGGG (site CAAATCACTCC)”, the “recombinant UMI read abundance (log10)” value was found to be 0.0224.

Regarding “CAAGTCACATGGACCGGTTTTCCCGGTAATCCGTATTTGGG (site CAACTCACTCC)”, the “recombinant UMI read abundance (log10)” value was 0.177.

“CAAGTCACATGGACCGGTTTTCCCGGTAATCCGTATTTGGG (site CAAGACACTCC)”: the “recombinant UMI read abundance (log10)” value was 0.0192.

In the case of “CAAGTCACATGGACCGGTTTTCCCGGTAATCCGTATTTGGG (site CAAGCCACTCC)”, the “recombinant UMI read abundance (log10)” value came to 0.239.

For the origin of these results see the supplement of paper PMC11208160.
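Further: IS621 bridge recombinase in Escherichia coli cells against a fixed T5 target plasmid.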
